According to patent US8076487B2, “Pyridone derivative and herbicide” (Kumiai Chemical Industry Co., Ltd., priority 2006, dated 2011):

How the values were obtained:
Test in all cases: Test Example 1: herbicidal effect by soil application to paddy field
Type in all cases: in vivo
[1] = test system: Japanese bulrush (Scirpus juncoides Roxb.); conditions: for herbicidal effect, Scirpus juncoides Roxb.: paddy field soil application, active ingredient 1,000 g per 1 hectare, wettable powder added dropwise to water surface the day after sowing, examined on the 21st day after application; for herbicidal effect (index), Scirpus juncoides Roxb.: soil application to paddy field, rated by standard of Table 34
From the text: (§1) Test Example 1 Test on Herbicidal Effect by Soil Application to Paddy Field In a 100 cm2 plastic pot, paddy field soil was filled. After puddling and leveling, seeds of early watergrass (Echinochloa oryzicola […] (Monochoria vaginalis ([…] Japanese bulrush (Scirpus juncoides Roxb.) were sown, and water was filled to be flooded to a water depth of 3 cm. […] Then, on the 21st day after the application to the plants grew in a greenhouse, the herbicidal effect was examined in accordance with a standard shown in Table 34. [table]

[2] = test system: early watergrass (Echinochloa oryzicola Vasing); conditions: for herbicidal effect, Echinochloa oryzicola Vasing: paddy field soil application, active ingredient 1,000 g per 1 hectare, wettable powder added dropwise to water surface the day after sowing, examined on the 21st day after application; for herbicidal effect (index), Echinochloa oryzicola Vasing: soil application to paddy field, rated by standard of Table 34
From the text: as §1

[3] = test system: heartshape false pickerelweed (Monochoria vaginalis (Burm.f.) C.Presl); conditions: for herbicidal effect, Monochoria vaginalis (Burm. f.) C. Presl: paddy field soil application, active ingredient 1,000 g per 1 hectare, wettable powder added dropwise to water surface the day after sowing, examined on the 21st day after application; for herbicidal effect (index), Monochoria vaginalis (Burm.f.) C.Presl: soil application to paddy field, rated by standard of Table 34
From the text: as §1

CCCS(=O)(=O)Oc1c(C(=O)c2ccc(C(F)(F)F)n(Cc3cccc(OC)c3)c2=O)cnn1C [IV-104]
herbicidal effect, Scirpus juncoides Roxb. [1]: 4 (70 to less than 90% of herbicidal effect and crop phytotoxicity) | herbicidal effect, Echinochloa oryzicola Vasing [2]: 5 (90% or more of herbicidal effect and crop phytotoxicity) | herbicidal effect, Monochoria vaginalis (Burm. f.) C. Presl [3]: 5 (90% or more of herbicidal effect and crop phytotoxicity)

Cn1ncc(C(=O)c2ccc(C(F)(F)F)n(CC3CCCO3)c2=O)c1OC(=O)c1ccc(C(C)(C)C)cc1 (stereo not drawn) [IV-132]
herbicidal effect, Scirpus juncoides Roxb. [1]: 5 (90% or more of herbicidal effect and crop phytotoxicity) | herbicidal effect, Echinochloa oryzicola Vasing [2]: 5 (90% or more of herbicidal effect and crop phytotoxicity) | herbicidal effect, Monochoria vaginalis (Burm. f.) C. Presl [3]: 5 (90% or more of herbicidal effect and crop phytotoxicity)

Cn1ncc(C(=O)c2ccc(C(F)(F)F)n(CC3CCCO3)c2=O)c1OC(=O)c1c(F)cc(F)cc1F (stereo not drawn) [IV-134]
herbicidal effect, Scirpus juncoides Roxb. [1]: 5 (90% or more of herbicidal effect and crop phytotoxicity) | herbicidal effect, Echinochloa oryzicola Vasing [2]: 5 (90% or more of herbicidal effect and crop phytotoxicity) | herbicidal effect, Monochoria vaginalis (Burm. f.) C. Presl [3]: 5 (90% or more of herbicidal effect and crop phytotoxicity)

Cc1cc(C)c(C(=O)Oc2c(C(=O)c3ccc(C(F)(F)F)n(CC4CCCO4)c3=O)cnn2C)c(C)c1 (stereo not drawn) [IV-135]
herbicidal effect, Scirpus juncoides Roxb. [1]: 5 (90% or more of herbicidal effect and crop phytotoxicity) | herbicidal effect, Echinochloa oryzicola Vasing [2]: 5 (90% or more of herbicidal effect and crop phytotoxicity) | herbicidal effect, Monochoria vaginalis (Burm. f.) C. Presl [3]: 5 (90% or more of herbicidal effect and crop phytotoxicity)

Cn1ncc(C(=O)c2ccc(C(F)(F)F)n(CC3CCCO3)c2=O)c1OCc1ccc(C(F)(F)F)cc1 (stereo not drawn) [IV-137]
herbicidal effect, Scirpus juncoides Roxb. [1]: 3 (50 to less than 70% of herbicidal effect and crop phytotoxicity) | herbicidal effect, Echinochloa oryzicola Vasing [2]: 4 (70 to less than 90% of herbicidal effect and crop phytotoxicity) | herbicidal effect, Monochoria vaginalis (Burm. f.) C. Presl [3]: 4 (70 to less than 90% of herbicidal effect and crop phytotoxicity)

Cc1cccc(COc2c(C(=O)c3ccc(C(F)(F)F)n(CC4CCCO4)c3=O)cnn2C)n1 (stereo not drawn) [IV-138]
herbicidal effect, Scirpus juncoides Roxb. [1]: 5 (90% or more of herbicidal effect and crop phytotoxicity) | herbicidal effect, Echinochloa oryzicola Vasing [2]: 5 (90% or more of herbicidal effect and crop phytotoxicity) | herbicidal effect, Monochoria vaginalis (Burm. f.) C. Presl [3]: 5 (90% or more of herbicidal effect and crop phytotoxicity)

Cc1ccc(S(=O)(=O)Oc2c(C(=O)c3ccc(C(F)(F)F)n(CC4CCCO4)c3=O)cnn2C)cc1 (stereo not drawn) [IV-141]
herbicidal effect, Scirpus juncoides Roxb. [1]: 5 (90% or more of herbicidal effect and crop phytotoxicity) | herbicidal effect, Echinochloa oryzicola Vasing [2]: 5 (90% or more of herbicidal effect and crop phytotoxicity) | herbicidal effect, Monochoria vaginalis (Burm. f.) C. Presl [3]: 5 (90% or more of herbicidal effect and crop phytotoxicity)

Cn1ncc(C(=O)c2ccc(C(F)(F)F)n(C)c2=O)c1OCc1ccc(Cl)cc1 [IV-191]
herbicidal effect, Scirpus juncoides Roxb. [1]: 5 (90% or more of herbicidal effect and crop phytotoxicity) | herbicidal effect, Echinochloa oryzicola Vasing [2]: 5 (90% or more of herbicidal effect and crop phytotoxicity) | herbicidal effect, Monochoria vaginalis (Burm. f.) C. Presl [3]: 5 (90% or more of herbicidal effect and crop phytotoxicity)

Cn1ncc(C(=O)c2ccc(C(F)(F)F)n(C)c2=O)c1OCc1ccc(C(C)(C)C)cc1 [IV-192]
herbicidal effect, Scirpus juncoides Roxb. [1]: 5 (90% or more of herbicidal effect and crop phytotoxicity) | herbicidal effect, Echinochloa oryzicola Vasing [2]: 5 (90% or more of herbicidal effect and crop phytotoxicity) | herbicidal effect, Monochoria vaginalis (Burm. f.) C. Presl [3]: 5 (90% or more of herbicidal effect and crop phytotoxicity)

Cc1ccc(S(=O)(=O)Oc2c(C(=O)c3ccc(C(F)(F)F)n(C)c3=O)cnn2C)cc1 [IV-194, 4-[1,2-dihydro-1-methyl-2-oxo-6-(trifluoromethyl)pyridine-3-carbonyl]-1-methyl-5-tosyloxy-1H-pyrazole]
herbicidal effect, Scirpus juncoides Roxb. [1]: 5 (90% or more of herbicidal effect and crop phytotoxicity) | herbicidal effect, Echinochloa oryzicola Vasing [2]: 5 (90% or more of herbicidal effect and crop phytotoxicity) | herbicidal effect, Monochoria vaginalis (Burm. f.) C. Presl [3]: 5 (90% or more of herbicidal effect and crop phytotoxicity)

CCn1ncc(C(=O)c2ccc(C(F)(F)F)n(CC3CCCO3)c2=O)c1OC(=O)c1c(Cl)cc(Cl)cc1Cl (stereo not drawn) [IV-206]
herbicidal effect, Scirpus juncoides Roxb. [1]: 5 (90% or more of herbicidal effect and crop phytotoxicity) | herbicidal effect, Echinochloa oryzicola Vasing [2]: 5 (90% or more of herbicidal effect and crop phytotoxicity) | herbicidal effect, Monochoria vaginalis (Burm. f.) C. Presl [3]: 5 (90% or more of herbicidal effect and crop phytotoxicity)

CCCn1ncc(C(=O)c2ccc(C(F)(F)F)n(C)c2=O)c1O [IV-213]
herbicidal effect, Scirpus juncoides Roxb. [1]: 5 (90% or more of herbicidal effect and crop phytotoxicity) | herbicidal effect, Echinochloa oryzicola Vasing [2]: 5 (90% or more of herbicidal effect and crop phytotoxicity) | herbicidal effect, Monochoria vaginalis (Burm. f.) C. Presl [3]: 5 (90% or more of herbicidal effect and crop phytotoxicity)

C=CCn1ncc(C(=O)c2ccc(C(F)(F)F)n(C)c2=O)c1O [IV-225]
herbicidal effect, Scirpus juncoides Roxb. [1]: 5 (90% or more of herbicidal effect and crop phytotoxicity) | herbicidal effect, Echinochloa oryzicola Vasing [2]: 5 (90% or more of herbicidal effect and crop phytotoxicity) | herbicidal effect, Monochoria vaginalis (Burm. f.) C. Presl [3]: 5 (90% or more of herbicidal effect and crop phytotoxicity)

C=CCn1ncc(C(=O)c2ccc(C(F)(F)F)n(C)c2=O)c1OCc1ccccc1 [IV-228]
herbicidal effect, Scirpus juncoides Roxb. [1]: 5 (90% or more of herbicidal effect and crop phytotoxicity) | herbicidal effect, Echinochloa oryzicola Vasing [2]: 5 (90% or more of herbicidal effect and crop phytotoxicity) | herbicidal effect, Monochoria vaginalis (Burm. f.) C. Presl [3]: 5 (90% or more of herbicidal effect and crop phytotoxicity)

Cc1ccc(S(=O)(=O)Oc2c(C(=O)c3ccc(C(F)(F)F)n(C)c3=O)c(C)nn2C)cc1 [IV-236]
herbicidal effect, Scirpus juncoides Roxb. [1]: 5 (90% or more of herbicidal effect and crop phytotoxicity) | herbicidal effect, Echinochloa oryzicola Vasing [2]: 5 (90% or more of herbicidal effect and crop phytotoxicity) | herbicidal effect, Monochoria vaginalis (Burm. f.) C. Presl [3]: 5 (90% or more of herbicidal effect and crop phytotoxicity)

Cc1nn(C)c(O)c1C(=O)c1ccc(C(F)(F)F)n(CC2CCCO2)c1=O (stereo not drawn) [IV-238]
herbicidal effect, Scirpus juncoides Roxb. [1]: 5 (90% or more of herbicidal effect and crop phytotoxicity) | herbicidal effect, Echinochloa oryzicola Vasing [2]: 4 (70 to less than 90% of herbicidal effect and crop phytotoxicity) | herbicidal effect, Monochoria vaginalis (Burm. f.) C. Presl [3]: 5 (90% or more of herbicidal effect and crop phytotoxicity)

CCCS(=O)(=O)Oc1c(C(=O)c2ccc(C(F)(F)F)n(CC3CCCO3)c2=O)c(C)nn1C (stereo not drawn) [IV-239]
herbicidal effect, Scirpus juncoides Roxb. [1]: 5 (90% or more of herbicidal effect and crop phytotoxicity) | herbicidal effect, Echinochloa oryzicola Vasing [2]: 5 (90% or more of herbicidal effect and crop phytotoxicity) | herbicidal effect, Monochoria vaginalis (Burm. f.) C. Presl [3]: 5 (90% or more of herbicidal effect and crop phytotoxicity)

Cc1ccc(S(=O)(=O)Oc2c(C(=O)c3ccc(C(F)(F)F)n(CC4CCCO4)c3=O)c(C)nn2C)cc1 (stereo not drawn) [IV-240]
herbicidal effect, Scirpus juncoides Roxb. [1]: 5 (90% or more of herbicidal effect and crop phytotoxicity) | herbicidal effect, Echinochloa oryzicola Vasing [2]: 5 (90% or more of herbicidal effect and crop phytotoxicity) | herbicidal effect, Monochoria vaginalis (Burm. f.) C. Presl [3]: 5 (90% or more of herbicidal effect and crop phytotoxicity)

CCCS(=O)(=O)Oc1c(C(=O)c2ccc(Cl)n(C)c2=O)cnn1C [IV-242]
herbicidal effect, Scirpus juncoides Roxb. [1]: 5 (90% or more of herbicidal effect and crop phytotoxicity) | herbicidal effect, Echinochloa oryzicola Vasing [2]: 5 (90% or more of herbicidal effect and crop phytotoxicity) | herbicidal effect, Monochoria vaginalis (Burm. f.) C. Presl [3]: 4 (70 to less than 90% of herbicidal effect and crop phytotoxicity)

Cn1c(C(F)(F)F)ccc(C(=O)C(C#N)C(=O)C2CC2)c1=O (stereo not drawn) [V-9, 2-cyano-3-cyclopropyl-1-[1,2-dihydro-1-methyl-2-oxo-6-(trifluoromethyl)pyridin-3-yl]propane-1,3-dione]
herbicidal effect (index), Scirpus juncoides Roxb. [1]: 5 (90% or more of herbicidal effect and crop phytotoxicity) | herbicidal effect (index), Echinochloa oryzicola Vasing [2]: 5 (90% or more of herbicidal effect and crop phytotoxicity) | herbicidal effect (index), Monochoria vaginalis (Burm.f.) C.Presl [3]: 5 (90% or more of herbicidal effect and crop phytotoxicity)

CCCn1c(C(F)(F)F)c(C)cc(C(=O)C(C#N)=C(O)C2CC2)c1=O [V-24]
herbicidal effect (index), Scirpus juncoides Roxb. [1]: 5 (90% or more of herbicidal effect and crop phytotoxicity) | herbicidal effect (index), Echinochloa oryzicola Vasing [2]: 5 (90% or more of herbicidal effect and crop phytotoxicity) | herbicidal effect (index), Monochoria vaginalis (Burm.f.) C.Presl [3]: 5 (90% or more of herbicidal effect and crop phytotoxicity)

N#CC(C(=O)c1ccc(C(F)(F)F)n(CC2CCCO2)c1=O)=C(O)C1CC1 (stereo not drawn) [V-26]
herbicidal effect (index), Scirpus juncoides Roxb. [1]: 4 (70 to less than 90% of herbicidal effect and crop phytotoxicity) | herbicidal effect (index), Echinochloa oryzicola Vasing [2]: 5 (90% or more of herbicidal effect and crop phytotoxicity) | herbicidal effect (index), Monochoria vaginalis (Burm.f.) C.Presl [3]: 5 (90% or more of herbicidal effect and crop phytotoxicity)
